Assay results reported in ChEMBL document CHEMBL3286383, “4-Benzofuranyloxynicotinamide derivatives are novel potent and orally available TGR5 agonists” (Eur J Med Chem, 2014).
pEC50: −log10 of the molar value.

How the values were obtained:
[1] = target: T1, G-protein coupled bile acid receptor 1 (Homo sapiens, UniProt Q8TDU6); experiment: Agonist activity at human TGR5 expressed in HEK293 cells co-expressing CRE after 5.5 hrs by luciferase reporter gene assay; assay type: functional, cell-based
T1 sequence (Q8TDU6 whole entry): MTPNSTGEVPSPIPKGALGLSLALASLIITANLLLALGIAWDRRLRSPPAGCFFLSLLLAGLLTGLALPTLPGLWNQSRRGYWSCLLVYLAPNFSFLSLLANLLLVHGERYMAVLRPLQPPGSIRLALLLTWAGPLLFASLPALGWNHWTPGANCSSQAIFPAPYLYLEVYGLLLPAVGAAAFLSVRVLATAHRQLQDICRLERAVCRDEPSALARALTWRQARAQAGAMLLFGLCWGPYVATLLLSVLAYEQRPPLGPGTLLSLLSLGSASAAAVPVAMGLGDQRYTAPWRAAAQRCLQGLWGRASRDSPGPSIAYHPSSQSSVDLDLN

[2] = target: T2, G-protein coupled bile acid receptor 1 (Mus musculus, UniProt Q80SS6); experiment: Agonist activity at mouse TGR5 expressed in HEK293 cells co-expressing CRE after 5.5 hrs by luciferase reporter gene assay; assay type: functional, cell-based
T2 sequence (Q80SS6 whole entry): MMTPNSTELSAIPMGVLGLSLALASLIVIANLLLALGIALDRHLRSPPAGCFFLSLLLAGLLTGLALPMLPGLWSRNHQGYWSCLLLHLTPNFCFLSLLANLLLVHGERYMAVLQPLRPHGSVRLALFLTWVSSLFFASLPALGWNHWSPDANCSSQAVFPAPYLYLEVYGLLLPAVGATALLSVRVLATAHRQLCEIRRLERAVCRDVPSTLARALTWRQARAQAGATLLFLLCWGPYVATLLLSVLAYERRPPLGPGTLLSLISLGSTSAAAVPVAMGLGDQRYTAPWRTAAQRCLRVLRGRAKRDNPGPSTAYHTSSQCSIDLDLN

Mus musculus [3] = experiment: Antidiabetic activity in oral glucose loaded ICR mouse assessed as reduction of AUC (0 to 120 mins) of blood glucose level at 50 mg/kg, po by oral glucose tolerance test; assay type: functional; design: scale not given: the % may be the effect or the level left
Mus musculus [4] = experiment: Gallbladder toxicity in ICR mouse assessed as increase of gallbladder volume at 50 mg/kg, po after 3 hrs; assay type: organism-based; design: dose 50 mg/kg, route oral; conditions: in vivo
[5] = Ratio of plasma concentration in ICR mouse plasma at 50 mg/kg, po after 3 hrs to EC50 for mouse TGR5 expressed in HEK293 cells; assay type: ADME, organism-based; design: dose 50 mg/kg, route oral; conditions: in vivo
Nucleic Acid [6] = experiment: Ratio of drug level in ICR mouse bile at 50 mg/kg, po after 3 hrs to EC50 for mouse TGR5 expressed in HEK293 cells; assay type: organism-based; design: dose 50 mg/kg
Nucleic Acid [7] = experiment: Ratio of drug level in ICR mouse gallbladder at 50 mg/kg, po after 3 hrs to EC50 for mouse TGR5 expressed in HEK293 cells; assay type: organism-based; design: dose 50 mg/kg
[8] = Apparent permeability of the compound from apical to basolateral side of human Caco2 cells up to 95 mins by LC-MS/MS analysis; conditions: Caco-2
[9] = Apparent permeability of the compound from basolateral to apical side of human Caco2 cells up to 95 mins by LC-MS/MS analysis; conditions: Caco-2
[10] = Efflux ratio of permeability from apical to basolateral side over basolateral to apical side of human Caco2 cells up to 95 mins by LC-MS/MS analysis; conditions: Caco-2
[11] = Drug level in ICR mouse blood at 50 mg/kg, po after 3 hrs by LC-MS/MS analysis; assay type: ADME, organism-based; design: dose 50 mg/kg, route oral; conditions: read-out: Drug uptake
[12] = Drug level in ICR mouse bile at 50 mg/kg, po after 3 hrs by LC-MS/MS analysis; assay type: ADME, organism-based; design: dose 50 mg/kg, route oral; conditions: read-out: Drug uptake
[13] = Drug level in ICR mouse gallbladder at 50 mg/kg, po after 3 hrs by LC-MS/MS analysis; assay type: ADME, organism-based, Gall bladder; design: dose 50 mg/kg, route oral; conditions: read-out: Drug uptake
[14] = target: T1, G-protein coupled bile acid receptor 1; experiment: Agonist activity at human TGR5; conditions: for pEC50: read-out: EC50
[15] = target: T3, G-protein coupled bile acid receptor 1 (Homo sapiens) (UniProt Q8TDU6); experiment: Agonist activity at human TGR5 expressed in HEK293 cells co-expressing CRE at 1 uM after 5.5 hrs by luciferase reporter gene assay; assay type: functional, cell-based
T3 sequence (whole entry): T1 sequence (Q8TDU6 whole entry)

| pEC50 [1] | pEC50 [2] | Structure (SMILES) | also measured |
| --- | --- | --- | --- |
| 9.55 | 9.04 | Cc1coc2cc(Cl)c(Oc3ccncc3C(=O)N3CCN(C4CC4)c4ccccc43)cc12 | Activity (Mus musculus [3]): 33%; Activity (Mus musculus [4]): 97%; Ratio [5]: 153; Ratio (Nucleic Acid [6]): 1030; Ratio (Nucleic Acid [7]): 891; Papp A→B at 95 min [8]: 2.1 ×10⁻⁶ cm/s; Papp B→A at 95 min [9]: 1.5 ×10⁻⁶ cm/s; efflux ratio at 95 min [10]: 0.71; concentration at 3 h [11]: 65 ng/mL; concentration at 3 h [12]: 438 ng/mL; concentration at 3 h [13]: 410 ng/mL |
| 7.46 | 7.00 | Cc1c(CCC(=O)O)oc2ccc(Cl)c(Oc3ccncc3C(=O)N3CCN(C4CC4)c4ccccc43)c12 |  |
| 7.82 | 7.22 | O=C(c1cnccc1Oc1ccc2ncsc2c1)N1CCN(C2CC2)c2ccccc21 |  |
| 6.75 |  | O=C(c1cnccc1Oc1cccc2cccnc12)N1CCN(C2CC2)c2ccccc21 |  |
| 7.60 | 7.74 | Cc1c(/C=C/C(=O)O)oc2ccc(Cl)c(Oc3ccncc3C(=O)N3CCN(C4CC4)c4ccccc43)c12 |  |
| 7.52 | 7.07 | CCOC(=O)CNC(=O)CCc1oc2ccc(Cl)c(Oc3ccncc3C(=O)N3CCN(C4CC4)c4ccccc43)c2c1C |  |
| 7.60 | 7.37 | O=C(c1cnccc1Oc1ccc2ccoc2c1)N1CCN(C2CC2)c2ccccc21 |  |
| 8.82 | 8.26 | Cc1noc2ccc(Oc3ccncc3C(=O)N3CCN(C4CC4)c4ccccc43)cc12 |  |
| 9.35 | 8.62 | Cc1coc2ccc(Oc3ccncc3C(=O)N3CCN(C4CC4)c4ccccc43)cc12 |  |
| 8.77 | 7.41 | CCOC(=O)c1coc2cc(Cl)c(Oc3ccncc3C(=O)N3CCN(C4CC4)c4ccccc43)cc12 |  |
| 5.87 |  | O=C(O)Cc1coc2cc(Cl)c(Oc3ccncc3C(=O)N3CCN(C4CC4)c4ccccc43)cc12 |  |
| 7.19 |  | O=C(c1cnccc1Oc1ccc2ncccc2c1)N1CCN(C2CC2)c2ccccc21 |  |
| 7.20 |  | Cc1c(C(=O)O)oc2cc(Cl)c(Oc3ccncc3C(=O)N3CCN(C4CC4)c4ccccc43)cc12 |  |
| 5.92 |  | O=C(c1cnccc1Oc1ccc2[nH]ccc2c1)N1CCN(C2CC2)c2ccccc21 |  |
| 7.97 | 7.55 | O=C(c1cnccc1Oc1ccc2occc2c1)N1CCN(C2CC2)c2ccccc21 |  |
| 7.77 | 7.18 | O=C(c1cnccc1Oc1cccc2ccccc12)N1CCN(C2CC2)c2ccccc21 |  |
|  |  | CC(=O)c1cc(C(=O)N2CCN(C3CC3)c3ccccc32)ccc1O | pEC50 [14]: 8.64 |
| 7.62 | 7.09 | COC(=O)CCc1coc2cc(Cl)c(Oc3ccncc3C(=O)N3CCN(C4CC4)c4ccccc43)cc12 |  |
|  |  | CC(=O)c1cccc(Oc2ccncc2C(=O)N2CCN(C3CC3)c3ccccc32)c1 | pEC50 [14]: 8.26 |
|  |  | O=C(c1cnccc1Oc1ccc(O)cc1)N1CCN(C2CC2)c2ccccc21 | EC50 [14]: Not Active |

| pEC50 [1] | pEC50 [2] | Structure (SMILES) | also measured |
| --- | --- | --- | --- |
| 7.80 | 7.28 | O=C(c1cnccc1Oc1ccc2sccc2c1)N1CCN(C2CC2)c2ccccc21 |  |
| 6.62 |  | Cc1noc2cc(Oc3ccncc3C(=O)N3CCN(C4CC4)c4ccccc43)ccc12 |  |
| 6.17 |  | O=C(O)CCc1coc2cc(Cl)c(Oc3ccncc3C(=O)N3CCN(C4CC4)c4ccccc43)cc12 |  |
| 8.07 | 8.21 | CCOC(=O)CNC(=O)/C=C/c1oc2ccc(Cl)c(Oc3ccncc3C(=O)N3CCN(C4CC4)c4ccccc43)c2c1C | Papp A→B at 95 min [8]: 1.04 ×10⁻⁶ cm/s; Papp B→A at 95 min [9]: 0.5 ×10⁻⁶ cm/s; efflux ratio at 95 min [10]: 0.48 |
| 6.28 |  | CCOC(=O)CNC(=O)Cc1coc2cc(Cl)c(Oc3ccncc3C(=O)N3CCN(C4CC4)c4ccccc43)cc12 |  |
| 8.28 | 7.42 | CCOC(=O)Cc1coc2cc(Cl)c(Oc3ccncc3C(=O)N3CCN(C4CC4)c4ccccc43)cc12 |  |
| 7.40 |  | O=C(c1cnccc1Oc1cccc2ncccc12)N1CCN(C2CC2)c2ccccc21 |  |
|  |  | O=C(O)c1coc2cc(Cl)c(Oc3ccncc3C(=O)N3CCN(C4CC4)c4ccccc43)cc12 | Activity [15]: 38% |
| 7.39 |  | O=C(c1cnccc1Oc1ccc2ccccc2c1)N1CCN(C2CC2)c2ccccc21 |  |
| 7.11 |  | CCOC(=O)CNC(=O)c1oc2cc(Cl)c(Oc3ccncc3C(=O)N3CCN(C4CC4)c4ccccc43)cc2c1C |  |
| 6.83 |  | O=C(c1cnccc1Oc1cccc2[nH]ccc12)N1CCN(C2CC2)c2ccccc21 |  |
| 6.79 |  | O=C(c1cnccc1Oc1ccc2cc[nH]c2c1)N1CCN(C2CC2)c2ccccc21 |  |
| 8.05 | 7.80 | CCOC(=O)/C=C/c1oc2ccc(Cl)c(Oc3ccncc3C(=O)N3CCN(C4CC4)c4ccccc43)c2c1C |  |
| 6.92 |  | CCOC(=O)CNC(=O)CCc1coc2cc(Cl)c(Oc3ccncc3C(=O)N3CCN(C4CC4)c4ccccc43)cc12 |  |
| 7.42 |  | CCOC(=O)c1oc2cc(Cl)c(Oc3ccncc3C(=O)N3CCN(C4CC4)c4ccccc43)cc2c1C |  |
| 5.85 |  | CCOC(=O)CNC(=O)c1coc2cc(Cl)c(Oc3ccncc3C(=O)N3CCN(C4CC4)c4ccccc43)cc12 |  |
| 7.74 | 7.14 | CCOC(=O)CCc1oc2ccc(Cl)c(Oc3ccncc3C(=O)N3CCN(C4CC4)c4ccccc43)c2c1C |  |
| 8.85 | 8.00 | O=C(c1cnccc1Oc1cc2ccoc2cc1Cl)N1CCN(C2CC2)c2ccccc21 |  |
| 8.11 | 7.18 | Cc1c(Br)oc2cc(Cl)c(Oc3ccncc3C(=O)N3CCN(C4CC4)c4ccccc43)cc12 |  |
| 7.23 |  | O=C(c1cnccc1Oc1ccc2cccnc2c1)N1CCN(C2CC2)c2ccccc21 |  |
